From patent US9221795B2, “Phosphatidylinositol 3-kinase inhibitors” (Gilead Sciences, Inc., priority 2013, dated 2015)
pEC50, pIC50: −log10 of the molar value.

Columns and labels:
PI3Kδ = PI3Kδ (Homo sapiens (Human), UniProt O00329); test: Enzymatic activity of PI3K isoforms, TR-FRET assay (PI3Kδ); type: biochemical; details: 2× Km ATP, geometric mean if more than one value
How it was run: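 Recombinant heterodimeric PI3Kβ or PI3Kδ (25-50 pM) was run with 2 μM PIP2 and 2× Km ATP (75-500 μM) at pH 7.4, for 30 min at 25° C. PIP3 formation was detected by TR-FRET displacement of labeled PIP3 from Eu-GRP-1. IC50 values in nM come from four-parameter fits, as geometric means.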

[1] = Hepatocyte stability (parent drug disappearance in cryopreserved hepatocytes); type: in vitro ADME, human; details: human, human hepatocytes
Procedure: This assay was used to evaluate the metabolic stability of test articles (TA) following incubation in cryopreserved hepatocytes by monitoring parent drug disappearance via LC/MC. The TA was incubated with 1 million hepatocytes/mL at 2 μM substrate in duplicate. The incubation was carried out at 37° C. with 5% CO2 and saturating humidity. Samples were taken at 0, 1, 2, and 4 hours to monitor the disappearance of TA and a half-life (t1/2) was determined. Table 3 below summarizes the human hepatocyte t1/2 values (hours) collected in the Example.

basophils = test: Basophil activation in human whole blood (Flow2 CAST kit, CD63 flow cytometry); type: cell-based
Procedure: Effect on basophil activation was measured in human whole blood using the Flow2 CAST® kit (Buhlmann Laboratories AG, Baselstrasse, Switzerland) following the protocol provided by the manufacturer with minor modifications. Human whole blood was collected into K2-EDTA venipuncture tubes. Whole blood samples were treated with either DMSO (0.3% final) or a serial dilution of compounds in DMSO for 60 minutes at 37° C. Basophils were then activated either with anti-FcεRI mAb or with fMLP. To activate basophils using the anti-FcεRI mAb; 50 μL of whole blood was mixed with 110 μL of stimulation buffer (B-BAT-STB) and 20 μl of anti-FcεRI (B-BAT-STCON). To activate basophils with fMLP; 50 μL of whole blood was mixed with 80 μL of stimulation buffer (B-BAT-STB) and 50 μL of fMLP (B-CCR-FMLP). Stimulation buffer was used as a negative control. 20 μL of the staining reagent (combination of anti-human CD63-FITC and anti-human CCR3-PE mAbs) was then added to each tube. The tubes were mixed gently and incubated for 25 minutes at 37° C. Subsequently, erythrocytes were lysed and fixed by the addition of 2 mL of lysing solution (B-BAT-LYR) for 10 minutes at room temperature. Cells were pelleted by centrifugation at 1200 rpm for 10 minutes at room temperature in a swing-out rotor. Supernatant was aspirated and cell pellet resuspended in 400 μL of wash buffer. Flow cytometric analysis of the basophil activation was performed on a FC500MPL flow cytometer (Beckman Coulter Inc., Fullerton, Calif.). CCR3-staining and side scatter were applied to gate at least 200 basophils that expressed a high density of CCR3. The percent CD63 positive cells within the gated basophil population were determined in different treatment groups and normalized to the vehicle control (0.3% DMSO) with anti-FcεRI mAb of fMLP stimulus as 100%. Final compound concentration was adjusted to correct for dilution effect of added reagents. The EC50 values were calculated from the analysis of the dose-response curves to a four-parameter equation.

[2] = Homo sapiens, class symbol, human whole blood, basophils activated with anti-FcεRI mAb or fMLP, percent CD63 positive cells
[3] = Homo sapiens, human whole blood, basophils activated with anti-FcεRI mAb or fMLP, percent CD63 positive cells, geometric mean
[4] = Homo sapiens, basophil activation in human whole blood, comparison Table 4
[5] = cryopreserved hepatocytes, comparison Table 4

Chain of PI3Kδ (O00329 whole entry, canonical isoform): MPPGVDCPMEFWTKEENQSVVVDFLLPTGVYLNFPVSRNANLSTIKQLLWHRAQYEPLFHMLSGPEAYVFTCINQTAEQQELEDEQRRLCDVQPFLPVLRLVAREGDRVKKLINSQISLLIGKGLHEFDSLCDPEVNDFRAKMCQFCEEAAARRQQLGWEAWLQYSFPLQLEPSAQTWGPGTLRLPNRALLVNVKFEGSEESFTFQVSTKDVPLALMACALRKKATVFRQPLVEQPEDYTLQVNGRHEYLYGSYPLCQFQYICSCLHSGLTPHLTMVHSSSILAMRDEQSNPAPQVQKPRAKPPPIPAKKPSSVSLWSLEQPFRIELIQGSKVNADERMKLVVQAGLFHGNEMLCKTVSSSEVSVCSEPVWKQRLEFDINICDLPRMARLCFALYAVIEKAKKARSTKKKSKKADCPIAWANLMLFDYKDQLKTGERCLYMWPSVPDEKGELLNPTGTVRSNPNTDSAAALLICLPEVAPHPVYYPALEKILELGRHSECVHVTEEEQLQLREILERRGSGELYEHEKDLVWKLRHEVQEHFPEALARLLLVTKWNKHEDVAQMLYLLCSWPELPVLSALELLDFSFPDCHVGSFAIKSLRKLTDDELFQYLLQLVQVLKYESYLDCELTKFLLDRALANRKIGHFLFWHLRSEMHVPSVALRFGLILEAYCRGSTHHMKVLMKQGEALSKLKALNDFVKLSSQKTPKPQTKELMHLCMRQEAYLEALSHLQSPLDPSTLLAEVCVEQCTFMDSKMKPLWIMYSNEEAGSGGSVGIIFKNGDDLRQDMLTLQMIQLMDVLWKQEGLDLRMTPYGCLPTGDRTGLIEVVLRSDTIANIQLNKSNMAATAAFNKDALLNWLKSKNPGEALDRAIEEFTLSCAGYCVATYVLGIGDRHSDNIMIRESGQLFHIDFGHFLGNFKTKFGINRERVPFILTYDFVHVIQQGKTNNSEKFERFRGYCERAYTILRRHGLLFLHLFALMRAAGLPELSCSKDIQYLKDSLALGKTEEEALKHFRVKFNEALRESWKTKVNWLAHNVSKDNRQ
Chain of PI3Kδ (P27986 whole entry partner, canonical isoform): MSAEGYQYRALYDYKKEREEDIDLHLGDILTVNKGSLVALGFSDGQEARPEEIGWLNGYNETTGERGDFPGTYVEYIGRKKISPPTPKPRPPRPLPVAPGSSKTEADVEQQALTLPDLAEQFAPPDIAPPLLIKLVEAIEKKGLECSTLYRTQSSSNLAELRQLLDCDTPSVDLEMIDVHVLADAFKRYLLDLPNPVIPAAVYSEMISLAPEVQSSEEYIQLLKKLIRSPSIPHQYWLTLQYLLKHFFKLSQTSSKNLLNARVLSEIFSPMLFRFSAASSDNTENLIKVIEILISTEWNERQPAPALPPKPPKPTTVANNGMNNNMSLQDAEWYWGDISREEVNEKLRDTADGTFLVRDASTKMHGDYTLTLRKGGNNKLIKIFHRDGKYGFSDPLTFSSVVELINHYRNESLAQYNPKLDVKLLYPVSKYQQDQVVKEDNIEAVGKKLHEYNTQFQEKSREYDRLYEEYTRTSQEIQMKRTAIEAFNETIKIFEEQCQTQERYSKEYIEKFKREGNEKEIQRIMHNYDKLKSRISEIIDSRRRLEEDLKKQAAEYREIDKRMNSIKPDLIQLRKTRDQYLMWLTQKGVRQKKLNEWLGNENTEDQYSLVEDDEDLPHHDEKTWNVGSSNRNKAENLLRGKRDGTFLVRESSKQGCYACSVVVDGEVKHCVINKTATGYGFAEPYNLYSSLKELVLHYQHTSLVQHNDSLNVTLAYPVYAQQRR

Row | Structure (SMILES) | pIC50 (PI3Kδ) | pEC50 (basophils; [2]) | pEC50 (basophils; [3]) | other results
1 | C[C@H](Nc1ncnc2[nH]cnc12)c1nc2cccc(Cl)c2c(=O)n1-c1ccccc1 [Compound X, reference compound] |  |  |  | pEC50 (basophils; [4]): < 8.30; half-life at 2 μM [1, 5]: < 2 h
2 | C[C@H](Nc1ncnc(N)c1C#N)c1nc2cccc(Cl)c2c(=O)n1-c1ccccc1 [Compound Y, reference compound] |  |  |  | pEC50 (basophils; [4]): < 8.00; half-life at 2 μM [1, 5]: < 2 h
3 | C[C@H](Nc1nc(N)nc(N)c1C#N)c1nc2cccc(Cl)c2c(=O)n1-c1cncc(C(F)(F)F)c1 [Compound 18, (S)-2,4-diamino-6-(1-(5-chloro-4-oxo-3-(5-(trifluoromethyl)pyridin-3-yl)-3,4-dihydroquinazolin-2-yl)ethylamino)pyrimidine-5-carbonitrile] | 7.74 | 7.30 to 8.00 | 7.66 | 
4 | N#Cc1c(N)nc(N)nc1N[C@@H](CC1CC1)c1nc2cccc(Cl)c2c(=O)n1-c1cccnc1 [Compound 4, (S)-2,4-diamino-6-(1-(5-chloro-4-oxo-3-(pyridin-3-yl)-3,4-dihydroquinazolin-2-yl)-2-cyclopropylethylamino)pyrimidine-5-carbonitrile] | 8.30 | 7.30 to 8.00 | 7.66 | 
5 | C[C@H](Nc1nc(N)nc(N)c1C#N)c1nc2cccc(Cl)c2c(=O)n1-c1ccccc1 [Compound Z, reference compound] |  |  |  | pEC50 (basophils; basophil activation in human whole blood, comparison Table 4): > 9.00; half-life at 2 μM [1, 5]: < 5 h

Now from value to molecule, other results behind:

Row | pIC50 (PI3Kδ) | pEC50 (basophils; [2]) | pEC50 (basophils; [3]) | Structure (SMILES) | other results
6 | 7.42 |  |  | Cc1c(F)cncc1-n1c([C@H](C)Nc2nc(N)nc(N)c2C#N)nc2cccc(Cl)c2c1=O (atropisomer, axis not shown) [Compound 46, (S)-2,4-diamino-6-(1-(5-chloro-3-(5-fluoro-4-methylpyridin-3-yl)-4-oxo-3,4-dihydroquinazolin-2-yl)ethylamino)pyrimidine-5-carbonitrile] | half-life at 2 μM ([1]; cryopreserved human hepatocytes, class symbol, 2 μM substrate, 37° C.): 6 to 10 h; half-life at 2 μM ([1]; cryopreserved human hepatocytes, 2 μM substrate, 37° C., Table 3): 8 h
7 | 7.46 | < 7.30 | 7.21 | CC[C@H](Nc1nc(N)nc(N)c1C#N)c1nc2c(F)ccc(C#N)c2c(=O)n1-c1cccnc1 [Compound 35, (S)-2-(1-((2,6-diamino-5-cyanopyrimidin-4-yl)amino)propyl)-8-fluoro-4-oxo-3-(pyridin-3-yl)-3,4-dihydroquinazoline-5-carbonitrile] | 
8 | 8.10 | 8.00 to 9.00 | 8.40 | C[C@H](Nc1nc(N)nc(N)c1C#N)c1nc2cccc(Cl)c2c(=O)n1-c1cncc(Cl)c1 [Compound 13, (S)-2,4-diamino-6-(1-(5-chloro-3-(5-chloropyridin-3-yl)-4-oxo-3,4-dihydroquinazolin-2-yl)ethylamino)pyrimidine-5-carbonitrile] | 
9 | 8.40 | 8.00 to 9.00 | 8.70 | C[C@H](Nc1nc(N)nc(N)c1C#N)c1nc2ccc(F)c(Cl)c2c(=O)n1-c1cccnc1 [Compound 36, (S)-2,4-diamino-6-(1-(5-chloro-6-fluoro-4-oxo-3-(pyridin-3-yl)-3,4-dihydroquinazolin-2-yl)ethylamino)pyrimidine-5-carbonitrile] | 
10 | 8.05 | 8.00 to 9.00 | 8.15 | Cc1ccncc1-n1c([C@H](C)Nc2nc(N)nc(N)c2C#N)nc2cccc(Cl)c2c1=O (atropisomer, axis not shown) [Compound 40, (S)-2,4-diamino-6-(1-(5-chloro-3-(4-methylpyridin-3-yl)-4-oxo-3,4-dihydroquinazolin-2-yl)ethylamino)pyrimidine-5-carbonitrile] | 
11 | 8.30 | 7.30 to 8.00 | 7.80 | N#Cc1c(N)nc(N)nc1N[C@H](c1nc2ccc(F)c(Cl)c2c(=O)n1-c1cccnc1)C1CC1 [Compound 37, (S)-2,4-diamino-6-((5-chloro-6-fluoro-4-oxo-3-(pyridin-3-yl)-3,4-dihydroquinazolin-2-yl)(cyclopropyl)methylamino)pyrimidine-5-carbonitrile] | 
